Columns and labels:
[1] = acid resistance experiment: litmus colour inside oil-filled, band-sealed DRcaps capsule submerged in acid; assay type: physicochemical; parameters: key to Result (color): −: almost all red/unsuitable; +: about half red/passable; ++: all blue/excellent; settings: for liquid color / acidification inside the capsule (in words) / Result (color): 120 minutes after submersion in JP first liquid pH1.2, 37°; for liquid color / acidification inside the capsule (in words): Example 2; for Result (color): colour of litmus powder in the fill of a DRcaps capsule, n=3
Protocol: The fine powder of a litmus reagent that changes to red in response to acid (blue, Wako Pure Chemical Industries Ltd. high grade), used as an active ingredient, is dispersed or dissolved in 0.2% by weight each of MCT, which is an edible oil (medium chain fatty acid triglyceride, coconad MT (made by Kao Co.) and glycerin, which is a water-based edible additive (made by Kao Co.) (dissolves very readily in water, comparative example). Then, 300 μL each of this solution is loaded into the separated body portion of an acid resistant hard capsule made by Capsugel (DRcaps (trademark), size no. 2, transparent no color). Then, a capsule formulation is prepared by sealing the fitted part of the cap portion and the body portion of the hard capsule using a band sealing solution (see FIG. 1). It should be noted that the band sealing solution is produced based on the information described in International Application PCT/US2013/041838 (application date May 20, 2013) (title of invention “ACID RESISTANT BANDING SOLUTION FOR TWO PIECE HARD CAPSULES”) wherein US Patent Application No. 61/707,135 (application date: Sep. 28, 2012) forms the basic application, which is an undisclosed application. The composition of the band sealing solution is ethanol: 59.9% by weight, shellac: 37.0% by weight, water: 1.6% by weight, and surfactant (sorbitan fatty acid aster and glycerin fatty acid ester) 1.5% by weight.
(§1) These capsule formulations are wrapped in wire to prevent the capsule formulations from floating up, and submerged in the first liquid (pH1.2 liquid) in the Japanese Pharmacopoeia which is maintained at 37° to simulate the gastric acid inside a living organism.
The experiment was carried out with the same conditions used in example 1 (amount of oil, measurement conditions, measurement time, and the like), and the effect on acid resistance when another oil or surfactant is enclosed in the capsule was examined. In this example, the following criteria were determined based on the color of the fine litmus powder dissolved or dispersed in oil enclosed in a capsule.
as §1, with “were” for “are”, “Pharmacopoeia” for “Pharmacopoeia which is”, “organism. The color of the liquid in the capsule 120 minutes after submersion is shown (see FIG. 4).” for “organism.”
It should be noted that because the four oils, DHA, rice germ oil, vitamin E, and vitamin A, are light yellow to dark green, visually confirming the change of the fine litmus powder from blue to red due to acid seeping into oil within the capsule was difficult. Therefore, the color was confirmed by enlarging the litmus particles dispersed within the oil from outside the capsule using a microscope. The determination criteria for this was the same as described above (see FIG. 5).

[2] = cited from earlier work

| Result (color) [1] | Molecule | liquid color / acidification inside the capsule (in words) [1] | Specific Gravity (25° C.) [2] | liquid color in the capsule ([1]; after 20 minutes in JP first liquid pH1.2, 37°, Example 1) |
| --- | --- | --- | --- | --- |
| ++ | Vitamin A | the interior of the capsule did not become acidic | 0.92 |  |
| − | Sorbitan fatty acid ester | the entire inside of the capsule turned red | 0.95 |  |
| − | OCC(O)CO [Glycerin, reference compound] | the entire inside of the capsule turned red | 1.264 | the entire inside of the capsule turned red |
| − | Glycerin fatty acid ester | the entire inside of the capsule turned red | 1.02 |  |
